In patent US20040122209A1, “Products for regulating the degradation of collagen and methods for identifying same” (Shriners Hospital For Children, priority 2002, published 2004):

Legend:
[1] = tested on: normal human adult articular cartilage explants; experiment: Proteoglycan release and content (DMMB dye assay) in human explant culture; type: cell-based
Method: Cumulative proteoglycan (mainly aggrecan) released into medium was calculated by summation of proteoglycan contents in medium at each medium change of every four days. Cartilage explants were maintained for up to 16 days cultured with or without CB12-II at 10 μM. Sulfated glycosaminoglycan in medium was assayed by dimethylmethylene blue (DMMB) method. Data are expressed as μg GAG release per wet weight of cartilage.
The cartilages were prepared as previously described (Dahlberg, L. et al. (2000) supra. In brief, the cartilage samples were washed three times with basal culture medium containing Dulbecco's modified Eagle's medium (DMEM; Gibco BRL, Life Technologies, Grand Island, N.Y.) with 20 mM HEAPS buffer (pH 7.4) (Gibco BRL), 45 mM NaHCO3, 100 units/ml penicillin, 100 μg/ml streptomycin and 150 μg/ml gentamycin sulphate (Medium A). Full-depth cartilage slices from a single area, around 20 mm×20 mm were cut vertical to the articular surface and then into cubes of approximately 2 mm×2 mm (5-7 cubes were randomly obtained and wet weights about 50-70 mg/well determined).
The cartilage was assigned to 48 well plate (ca 40 mg/well) and kept in Medium A supplemented with 50 μg/ml ascorbic acid, 0.1 mg/bovine serum albumin, 50 μg/ml insulin, 5.0 μg/ml and 5.0 μg/ml sodium DMEM alone at 37° C. in 95% air/5% CO2. The cartilage was precultured for 2 days and medium was changed at day 0. […]
In order to show the specificity of the peptide fragments of one embodiment on degradation of type II collagen as compared with proteoglycan, primarily aggrecan, sulphated glycosaminoglycan (GAG) content was determined in both the α-chymotrypsin and proteinase K digests for total proteoglycan (predominantly aggrecan) content in cell pellets, cartilage explants and also in conditioned media. […]
In order to examine any effects of SP on proteoglycan catabolism in normal human articular cartilage, cumulative proteoglycan (mainly aggrecan) release into medium and proteoglycan content in cartilage were determined by DMMB (1,9-dimethylmethyleneblue) dye assay.

MMP-1 = experiment: ELISA for MMP-1 in conditioned medium of human chondrocytes; type: cell-based; details: 48 hours; CB12-II 50 μM, TNF-α 50 ng/ml
Method: First-passaged normal human chondrocytes isolated by the method described above and cultured at high density (2×10^5 cells/cm^2) were trypsinized and resuspended in Medium A containing 1% FCS at a density of 10^6 cells/ml. Then, 200 μl of the cell suspension was each plated onto round-bottomed 96-well culture plate. On the next day after plating, CB12-II at 50 μM, USP at 50 μM, and TNF-α at 50 ng/ml were added to the culture media, and the culture was maintained for 24-48 hours. Conditioned media were collected and subjected to ELISA assay. The ELISA kits (BIOTRAK) for MMP-1 and MMP-13 were purchased from Amersham Pharmacia Biotech (Piscataway, N.J.). Measurement range was 6.25-100 ng/ml for MMP-1 and 0.094-3 ng/ml for MMP-13. Sensitivity for the assay was 1.7 ng/ml for MMP-1 and 0.7 ng/ml for MMP-13.
Protein levels of MMP-1 and MMP-13 were also tested by incubating isolated human chondrocytes for 48 hours in high density culture (10^6 cells/ml) with CB12-II, negative control peptide USP, or cytokine TNF-α, as discussed above. MMP-1 and MMP-13 secretion into medium from the cells was measured using ELISA (see FIGS. 9A and 9B).

ERGPPGPQGARGFPGTPGLPGVK [CB12-II]
cumulative proteoglycan release, SP-treated versus control specimens ([1]; 10 μM, up to 16 days): no significant difference
proteoglycan release into medium ([1]; 10 μM, up to 16 days): did not induce proteoglycan release
proteoglycan content in cartilage explants ([1]; data not shown): nor did it decrease proteoglycan content
MMP-1 secretion into medium versus no peptide and negative control peptide (USP) (MMP-1): significantly higher
